# Values quoted from earlier work, collected in patent US20180133147A1, “Drug Delivery Systems” (Novartis AG, priority 2013, published 2018).
# Where two headings read alike, the source gives them in different places.
substance,measurement,setting,value
octreotide pamoate,solubility in water,25° C.,200 µg/mL
pasireotide pamoate,solubility in water,,20 µg/mL
vapreotide pamoate,solubility in phosphate buffer saline,PBS pH 7.4,20 to 40 µg/mL
